According to patent US20020019378A1, “COMPOUNDS” (priority 1997, published 2002):

How the values were obtained:
[1] = biological target: T1, Human Glucocorticoid Receptor (Homo sapiens, UniProt P04150); assay: Functional in vitro glucocorticoid activity assay: Hela cells stably transfected with sPAP reporter gene under MMTV LTR promoter; format: cell-based; details: 72 hours incubation, values given as 'less than (about)', read-out: EC50 (sPAP transcription, glucocorticoid activity)
T1 construct: endogenous in cells; host or cells: HeLa cells stably transfected with an MMTV-LTR sPAP reporter
T1 sequence (P04150 1-777): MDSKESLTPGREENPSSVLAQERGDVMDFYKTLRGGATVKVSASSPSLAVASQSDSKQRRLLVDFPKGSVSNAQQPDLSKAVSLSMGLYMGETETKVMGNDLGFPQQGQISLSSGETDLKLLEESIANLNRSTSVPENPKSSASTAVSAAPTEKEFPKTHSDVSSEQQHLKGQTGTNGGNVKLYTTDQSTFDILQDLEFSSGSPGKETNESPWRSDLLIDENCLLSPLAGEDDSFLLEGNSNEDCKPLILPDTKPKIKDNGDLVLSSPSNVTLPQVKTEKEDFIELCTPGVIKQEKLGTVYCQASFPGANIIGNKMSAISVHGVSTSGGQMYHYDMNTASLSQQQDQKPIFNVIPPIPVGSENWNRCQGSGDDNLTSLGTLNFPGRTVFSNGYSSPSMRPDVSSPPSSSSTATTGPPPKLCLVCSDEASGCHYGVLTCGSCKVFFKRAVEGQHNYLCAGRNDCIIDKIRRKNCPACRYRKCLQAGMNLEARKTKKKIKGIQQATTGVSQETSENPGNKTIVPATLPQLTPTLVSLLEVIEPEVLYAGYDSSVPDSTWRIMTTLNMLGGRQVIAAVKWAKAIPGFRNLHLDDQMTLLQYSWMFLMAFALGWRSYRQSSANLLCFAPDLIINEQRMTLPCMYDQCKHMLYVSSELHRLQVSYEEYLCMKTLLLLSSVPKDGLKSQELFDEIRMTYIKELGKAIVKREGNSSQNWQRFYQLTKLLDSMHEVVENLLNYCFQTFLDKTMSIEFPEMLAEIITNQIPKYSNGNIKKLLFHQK
Source text: The functional assay used was a modification of the method described by T. S Berger et al, of J. of Steroid Biochem. Molec. Biol. 1992, 41 (3-8), 733-738, “Interaction of Glucocorticoid analogues with the Human Glucocorticoid Receptor”. Thus, Hela cells were stably transfected with a detectable reporter gene (secreted placental alkaline phosphatase, sPAP) under the control of a glucocorticoid response promoter (the LTR of the mouse mammary tumour virus, MMTV). Various concentrations of standard (dexamethasone) or compounds of the invention were incubated with transfected Hela cells for 72 hours. At the end of the incubation, substrate ([…]) for sPAP was added and the product measured by a spectrophotometric method. Increased absorbance reflected increased sPAP transcription and concentration-response lines were constructed such that EC50-values could be estimated.

[2] = Stability in human lung S9; format: in vitro ADME; details: human lung S9 diluted 1:1 with phosphate buffer pH 7.4, NADPH, 37° C.
Experimental: The stability of the compound of Examples 4 and 6 in a model human lung environment was assessed using the following test protocol: Incubations were carried out, at 37° C., in 500 μL volumes of human lung S9 diluted 1:1 with 10 mM phosphate buffer pH 7.4 to which was added 50 μl of 30 mg/ml (Aq) NADPH. The reactions were started by the addition of 5 μl of test compound (nominally 5 mg/ml solution in DMSO). Aliquots (100 μl) were removed immediately and after 1 hour and mixed with an equal volume of acetonitrile to stop the reaction. Samples were centrifuged and the supernatants were transferred to autosampler vials for HPLC analysis and half-life analysis using methods identical to those described in the ‘stability in human plasma’ test protocol described above. Control incubations containing no lung S9 were also included.

[3] = Stability in human plasma test method; format: in vitro ADME; details: 37° C.
Experimental: The stability of various of the compounds of the Examples in human plasma was tested using the following ‘stability in human plasma’ test method: 500 μl aliquots of human plasma in screw capped polypropylene tubes were preincubated at 37° C. in a waterbath for 5 minutes. The plasma samples were then spiked with 5 μl of test compound (nominally 5 mg/ml in DMSO). Aliquots (100 μl ) were removed immediately and after 5 minutes and mixed with an equal volume of acetonitrile. The samples were centrifuged and the supernatants were transferred to autosampler vials for HPLC and half-life analysis.
(§1) In the HPLC procedure, aliquots (20 μl) of all the supernatants were injected onto a Zorbax Rx C8 column (250×4.6mm; Hichrom). The column was maintained at 40° C. and eluted at a flow rate of 1.0 mL/min with a mobile phase of acetonitrile: 50 mM ammonium formate (65:35) adjusted to pH 4.2 with formic acid. Detection was by UV absorbance at 240 nm, and chromatographic peak areas for both parent and metabolite were measured
To determine the half-life, for each compound peak areas were plotted against time on a log-linear scale, and the half lives determined by extrapolation or interpolation of a straight line joining two points.

[4] = biological target: human serum paraoxonase (Homo sapiens, UniProt P27169); assay: Hydrolysis by human serum paraoxonase (enzymatic hydrolysis test method); format: in vitro ADME; details: 5% bovine serum albumin, 20 mM CaCl2, 37° C.
human serum paraoxonase, sequence (P27169 whole entry): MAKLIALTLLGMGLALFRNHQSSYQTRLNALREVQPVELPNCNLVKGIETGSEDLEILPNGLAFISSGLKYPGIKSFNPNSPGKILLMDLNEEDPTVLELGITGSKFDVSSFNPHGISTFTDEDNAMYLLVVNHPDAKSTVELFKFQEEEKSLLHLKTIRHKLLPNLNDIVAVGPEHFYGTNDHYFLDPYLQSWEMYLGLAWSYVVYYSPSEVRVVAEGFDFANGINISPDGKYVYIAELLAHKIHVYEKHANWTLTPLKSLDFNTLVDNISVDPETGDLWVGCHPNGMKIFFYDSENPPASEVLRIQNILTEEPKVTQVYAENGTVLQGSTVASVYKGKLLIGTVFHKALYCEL
Experimental: The compounds herein have relatively short half-lives in blood in vitro. A test method for determining the half-life of the compounds under defined enzymatic hydrolysis conditions in vitro is now described. The test method is believed to provide a suitable indicator as to effects in vivo. In the test method, the hydrolysis of test compounds by a lactonase enzyme is monitored using RP HPLC with UV detection.
The ‘enzymatic hydrolysis test method’ is as follows: Incubations are carried out in 1 ml volumes in an aqueous medium containing 5% bovine serum albumin in the presence of 20 mM CaCl2. The solutions are preincubated at 37° C. for 5 minutes before the addition of the test compound (5 μl of a 5 mg/ml solution in DMSO) and then lactonase enzyme (10 μl to the 1 ml incubations). Control incubations containing no enzyme are also included. The enzymatic hydrolysis is monitored by removal of aliquots and quenching the reaction by the addition of an equal volume of acetonitrile. The samples are vortex mixed, then centrifuged and the supernatants are transferred to autosampler vials for HPLC analysis.
as §1, with “In a suitable” for “In the”, “of” for “of all”, “supernatants are” for “supernatants were”, “column is” for “column was”, “Detection is” for “Detection was”, “metabolite are measured.” for “metabolite were measured”
In a preferred aspect, the half-life of each compound may be determined by a method in which peak areas are plotted against time on a log-linear scale, and the half lives determined by extrapolation or interpolation of a straight line joining two points.
The above described ‘enzymatic hydrolysis test method’ employs lactonase enzyme. Suitable forms of lactonase enzyme include human serum paraoxonase or a recombinant form thereof, or purified lactonase, obtained from human plasma as described hereinafter. Purification of human serum paraoxonase is described by C E Furlong et al, Chem.Biol.Interactions, Vol 87, p35-48, (1993) and recombinant human serum paraoxonase is described in International Patent application No. WO 96/01322
The susceptibility to hydrolysis by human serum paraoxonase of certain of the compounds of the Examples was assessed using the test protocol of the ‘enzymatic hydrolysis test method’ described herein.

Structure (SMILES): CC12CCC(=O)C=C1C(F)CC1C3CC4OC(CSC5CCOC5=O)OC4(C(=O)CO)C3(C)CC(O)C12F (stereo not drawn) [Example 4, 6α,9α-Difluoro-11β,21-dihydroxy-16α, 17α-[2-(2-oxo-tetrahydro-furan-3-yl)sulfanyl]ethylidenedioxy-pregn-4-ene-3,20-dione]
- EC50 [1]: < 250 nM
- half-life at 45 µg/mL [2]: > 60 min
- half-life at 49.5 µg/mL [3]: < 10 min
- Hydrolysis by human serum paraoxonase [4]: hydrolysed
